Experimental data published in ChEMBL document CHEMBL1629662, “Antimicrobial activity of prulifloxacin tested against a worldwide collection of gastroenteritis-producing pathogens, including those causing traveler's diarrhea” (2009).

Experiments:
Escherichia coli [1] = test: Antibacterial activity against Escherichia coli by broth microdilution method; type: functional
Escherichia coli [2] = test: Antibacterial activity against Escherichia coli assessed as percent susceptible isolates by broth microdilution method; type: functional
Escherichia coli [3] = test: Antibacterial activity against Escherichia coli assessed as percent resistant isolates by broth microdilution method; type: functional
Salmonella typhimurium [4] = test: Antibacterial activity against Salmonella enterica serovar Typhimurium by broth microdilution method; type: functional, Salmonella enterica subsp. enterica serovar Typhimurium
Salmonella typhimurium [5] = test: Antibacterial activity against Salmonella enterica serovar Typhimurium assessed as percent resistant isolates by broth microdilution method; type: functional, Salmonella enterica subsp. enterica serovar Typhimurium; details: pooled result: one value given for 8 cell lines, strains, targets or settings
Salmonella enteritidis [6] = test: Antibacterial activity against Salmonella enterica serovar Enteritidis by broth microdilution method; type: functional, Salmonella enterica subsp. enterica serovar Enteritidis
Salmonella enteritidis [7] = test: Antibacterial activity against Salmonella enterica serovar Enteritidis assessed as percent susceptible isolates by broth microdilution method; type: functional, Salmonella enterica subsp. enterica serovar Enteritidis; details: pooled result: one value given for 5 cell lines, strains, targets or settings
Salmonella typhi [8] = test: Antibacterial activity against Salmonella enterica serovar Typhi by broth microdilution method; type: functional, Salmonella enterica subsp. enterica serovar Typhi
Salmonella typhi [9] = test: Antibacterial activity against Salmonella enterica serovar Typhi assessed as percent susceptible isolates by broth microdilution method; type: functional, Salmonella enterica subsp. enterica serovar Typhi
Salmonella paratyphi [10] = test: Antibacterial activity against Salmonella enterica serovar Paratyphi by broth microdilution method; type: functional, Salmonella enterica subsp. enterica serovar Paratyphi A
Salmonella paratyphi [11] = test: Antibacterial activity against Salmonella enterica serovar Paratyphi assessed as percent susceptible isolates by broth microdilution method; type: functional, Salmonella enterica subsp. enterica serovar Paratyphi A
[12] = Antibacterial activity against Salmonella enterica serovar Choleraesuis by broth microdilution method; type: functional, Salmonella enterica subsp. enterica serovar Choleraesuis
[13] = Antibacterial activity against Salmonella enterica serovar Choleraesuis assessed as percent susceptible isolates by broth microdilution method; type: functional, Salmonella enterica subsp. enterica serovar Choleraesuis
[14] = Antibacterial activity against Salmonella enterica serovar Newport by broth microdilution method; type: functional, Salmonella enterica subsp. enterica serovar Newport
[15] = Antibacterial activity against Salmonella enterica serovar Virchow by broth microdilution method; type: functional, Salmonella enterica subsp. enterica serovar Virchow
[16] = Antibacterial activity against Salmonella enterica serovar Heidelberg by broth microdilution method; type: functional, Salmonella enterica subsp. enterica serovar Heidelberg
Shigella sonnei [17] = test: Antibacterial activity against Shigella sonnei by broth microdilution method; type: functional
Shigella sonnei [18] = test: Antibacterial activity against Shigella sonnei assessed as percent resistant isolates by broth microdilution method; type: functional; details: pooled result: one value given for 4 cell lines, strains, targets or settings
Shigella flexneri = test: Antibacterial activity against Shigella flexneri by broth microdilution method; type: functional
Shigella boydii [19] = test: Antibacterial activity against Shigella boydii by broth microdilution method; type: functional
Shigella boydii [20] = test: Antibacterial activity against Shigella boydii assessed as percent susceptible isolates by broth microdilution method; type: functional; details: pooled result: one value given for 3 cell lines, strains, targets or settings
Shigella dysenteriae [21] = test: Antibacterial activity against Shigella dysenteriae by broth microdilution method; type: functional
Shigella dysenteriae [22] = test: Antibacterial activity against Shigella dysenteriae assessed as percent susceptible isolates by broth microdilution method; type: functional
Yersinia enterocolitica [23] = test: Antibacterial activity against Yersinia enterocolitica by broth microdilution method; type: functional
Yersinia enterocolitica [24] = test: Antibacterial activity against Yersinia enterocolitica assessed as percent susceptible isolates by broth microdilution method; type: functional
Yersinia enterocolitica [25] = test: Antibacterial activity against Yersinia enterocolitica assessed as percent resistant isolates by broth microdilution method; type: functional
[26] = tested on: Yersinia pseudotuberculosis; test: Antibacterial activity against Yersinia pseudotuberculosis by broth microdilution method; type: functional
[27] = tested on: Yersinia pseudotuberculosis; test: Antibacterial activity against Yersinia pseudotuberculosis assessed as percent susceptible isolates by broth microdilution method; type: functional
Aeromonas hydrophila [28] = test: Antibacterial activity against Aeromonas hydrophila by broth microdilution method; type: functional
Aeromonas hydrophila [29] = test: Antibacterial activity against Aeromonas hydrophila assessed as percent susceptible isolates by broth microdilution method; type: functional
Aeromonas hydrophila [30] = test: Antibacterial activity against Aeromonas hydrophila assessed as percent resistant isolates by broth microdilution method; type: functional
Aeromonas caviae [31] = test: Antibacterial activity against Aeromonas caviae by broth microdilution method; type: functional
Aeromonas caviae [32] = test: Antibacterial activity against Aeromonas caviae assessed as percent susceptible isolates by broth microdilution method; type: functional
Aeromonas caviae [33] = test: Antibacterial activity against Aeromonas caviae assessed as percent resistant isolates by broth microdilution method; type: functional
Aeromonas sobria [34] = test: Antibacterial activity against Aeromonas sobria by broth microdilution method; type: functional
Aeromonas sobria [35] = test: Antibacterial activity against Aeromonas sobria assessed as percent susceptible isolates by broth microdilution method; type: functional
Aeromonas sobria [36] = test: Antibacterial activity against Aeromonas sobria assessed as percent resistant isolates by broth microdilution method; type: functional
Aeromonas veronii [37] = test: Antibacterial activity against Aeromonas veronii by broth microdilution method; type: functional
Aeromonas veronii [38] = test: Antibacterial activity against Aeromonas veronii assessed as percent susceptible isolates by broth microdilution method; type: functional
Aeromonas veronii [39] = test: Antibacterial activity against Aeromonas veronii assessed as percent resistant isolates by broth microdilution method; type: functional
Plesiomonas shigelloides [40] = test: Antibacterial activity against Plesiomonas shigelloides by broth microdilution method; type: functional
Plesiomonas shigelloides [41] = test: Antibacterial activity against Plesiomonas shigelloides assessed as percent susceptible isolates by broth microdilution method; type: functional
Plesiomonas shigelloides [42] = test: Antibacterial activity against Plesiomonas shigelloides assessed as percent resistant isolates by broth microdilution method; type: functional
Vibrio cholerae = test: Antibacterial activity against Vibrio cholerae by broth microdilution method; type: functional
Vibrio parahaemolyticus = test: Antibacterial activity against Vibrio parahaemolyticus by broth microdilution method; type: functional
Vibrio alginolyticus = test: Antibacterial activity against Vibrio alginolyticus by broth microdilution method; type: functional
Vibrio fluvialis = test: Antibacterial activity against Vibrio fluvialis by broth microdilution method; type: functional
Vibrio vulnificus = test: Antibacterial activity against Vibrio vulnificus by broth microdilution method; type: functional
Vibrio sp. = test: Antibacterial activity against Vibrio sp. by broth microdilution method; type: functional
Campylobacter jejuni = test: Antibacterial activity against Campylobacter jejuni by broth microdilution method; type: functional
Campylobacter coli = test: Antibacterial activity against Campylobacter coli by broth microdilution method; type: functional

## CCn1cc(C(=O)O)c(=O)c2ccc(C)nc21 [NALIDIXIC ACID]
Escherichia coli [1]
  MIC50: ≤ 8 µg/mL
  MIC90: ≤ 8 µg/mL
Escherichia coli [2]
  Activity: 95%
Escherichia coli [3]
  Activity: 5%
Salmonella typhimurium [4]
  MIC50: ≤ 8 µg/mL
  MIC90: > 32 µg/mL
Salmonella typhimurium [5]
  Activity: 15.8%
Salmonella enteritidis [6]
  MIC50: ≤ 8 µg/mL
  MIC90: > 32 µg/mL
Salmonella enteritidis [7]
  Activity: 84.2%
Salmonella typhi [8]
  MIC50: ≤ 8 µg/mL
  MIC90: > 32 µg/mL
Salmonella typhi [9]
  Activity: 84.2%
Salmonella paratyphi [10]
  MIC50: ≤ 8 µg/mL
  MIC90: > 32 µg/mL
Salmonella paratyphi [11]
  Activity: 84.2%
[12]
  MIC50: ≤ 8 µg/mL
  MIC90: > 32 µg/mL
[13]
  Activity: 84.2%
[14]
  MIC50: ≤ 8 µg/mL
  MIC90: > 32 µg/mL
[15]
  MIC50: ≤ 8 µg/mL
  MIC90: > 32 µg/mL
[16]
  MIC50: ≤ 8 µg/mL
  MIC90: > 32 µg/mL
Shigella sonnei [17]
  MIC50: ≤ 8 µg/mL
  MIC90: ≤ 8 µg/mL
Shigella sonnei [18]
  Activity: 3%
Shigella flexneri
  MIC50: ≤ 8 µg/mL
  MIC90: ≤ 8 µg/mL
Shigella boydii [19]
  MIC50: ≤ 8 µg/mL
  MIC90: ≤ 8 µg/mL
Shigella boydii [20]
  Activity: 97%
Shigella dysenteriae [21]
  MIC50: ≤ 8 µg/mL
  MIC90: ≤ 8 µg/mL
Shigella dysenteriae [22]
  Activity: 97%
Yersinia enterocolitica [23]
  MIC50: ≤ 8 µg/mL
  MIC90: ≤ 8 µg/mL
Yersinia enterocolitica [24]
  Activity: 93.5%
Yersinia enterocolitica [25]
  Activity: 6.5%
[26]
  MIC50: ≤ 8 µg/mL
  MIC90: ≤ 8 µg/mL
[27]
  Activity: 93.5%
Aeromonas hydrophila [28]
  MIC50: ≤ 8 µg/mL
  MIC90: > 32 µg/mL
Aeromonas hydrophila [29]
  Activity: 81.2%
Aeromonas hydrophila [30]
  Activity: 18.8%
Aeromonas caviae [31]
  MIC50: ≤ 8 µg/mL
  MIC90: > 32 µg/mL
Aeromonas caviae [32]
  Activity: 81.2%
Aeromonas caviae [33]
  Activity: 18.8%
Aeromonas sobria [34]
  MIC50: ≤ 8 µg/mL
  MIC90: > 32 µg/mL
Aeromonas sobria [35]
  Activity: 81.2%
Aeromonas sobria [36]
  Activity: 18.8%
Aeromonas veronii [37]
  MIC50: ≤ 8 µg/mL
  MIC90: > 32 µg/mL
Aeromonas veronii [38]
  Activity: 81.2%
Aeromonas veronii [39]
  Activity: 18.8%
Plesiomonas shigelloides [40]
  MIC: ≤ 8 µg/mL
  MIC50: ≤ 8 µg/mL
Plesiomonas shigelloides [41]
  Activity: 100%
Plesiomonas shigelloides [42]
  Activity: 0%
Vibrio cholerae
  MIC: ≤ 8 µg/mL
  MIC50: ≤ 8 µg/mL
  MIC90: ≤ 8 µg/mL
Vibrio parahaemolyticus
  MIC: ≤ 8 µg/mL
  MIC50: ≤ 8 µg/mL
  MIC90: ≤ 8 µg/mL
Vibrio alginolyticus
  MIC: ≤ 8 µg/mL
  MIC50: ≤ 8 µg/mL
  MIC90: ≤ 8 µg/mL
Vibrio fluvialis
  MIC: ≤ 8 µg/mL
  MIC50: ≤ 8 µg/mL
  MIC90: ≤ 8 µg/mL
Vibrio vulnificus
  MIC: ≤ 8 µg/mL
  MIC50: ≤ 8 µg/mL
  MIC90: ≤ 8 µg/mL
Vibrio sp.
  MIC: ≤ 8 µg/mL
  MIC50: ≤ 8 µg/mL
  MIC90: ≤ 8 µg/mL
Campylobacter jejuni
  MIC50: ≤ 8 µg/mL
  MIC90: > 32 µg/mL
Campylobacter coli
  MIC50: ≤ 8 µg/mL
  MIC90: > 32 µg/mL
